Test results published in the supplement of paper PMC10307832.

Assays:
Assay in all cases: relative viability (nuclei count vs DMSO), 5 days (fraction); higher = more cells survive
[1] = compound: CCc1cnn2c(NCc3ccc[n+]([O-])c3)cc(N3CCCC[C@H]3CCO)nc12 [Dinaciclib] + N=C(N)NC(=N)NCCc1ccccc1 [Phenformin] (partner 250 µM)
Procedure, shortened: (§1)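 Lung cancer cell lines, seeded in 1536-well plates, were treated the following day by pin tool with a single drug or with five library-drug doses (not always all listed) in √10 steps on top of a fixed anchor-drug dose. Cells were fixed and nuclei stained in one step after 5 days, and nuclei were counted. Relative viability is the nuclei count for treated wells divided by that for vehicle wells, reported as medians of duplicate plates.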

[2] = compound: CCc1cnn2c(NCc3ccc[n+]([O-])c3)cc(N3CCCC[C@H]3CCO)nc12 [Dinaciclib] + C[C@@H](Oc1cc(-c2cnn(C3CCNCC3)c2)cnc1N)c1c(Cl)ccc(F)c1Cl [Crizotinib] (partner 1 µM)
Procedure, shortened: as §1

[3] = compound: CCc1cnn2c(NCc3ccc[n+]([O-])c3)cc(N3CCCC[C@H]3CCO)nc12 [Dinaciclib] + COc1cc2c(Oc3ccc(NC(=O)C4(C(=O)Nc5ccc(F)cc5)CC4)cc3F)ccnc2cc1OCCCN1CCOCC1 [Foretinib] (partner 0.25 µM)
Procedure, shortened: as §1

[4] = compound: CCc1cnn2c(NCc3ccc[n+]([O-])c3)cc(N3CCCC[C@H]3CCO)nc12 [Dinaciclib] + C[C@]1(O)C[C@@H](c2nc(-c3ccc4ccc(-c5ccccc5)nc4c3)c3c(N)nccn32)C1 [Linsitinib] (partner 1 µM)
Procedure, shortened: as §1

[5] = compound: CCc1cnn2c(NCc3ccc[n+]([O-])c3)cc(N3CCCC[C@H]3CCO)nc12 [Dinaciclib]
Procedure, shortened: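 Only plates meeting two conditions passed: control CV below 25% and at least one doubling. Lung cancer cell lines, kept overnight at 37 °C in 1536-well plates, were pinned with five library-drug doses (not always all listed) √10 apart on vehicle-anchored plates and grown 5 days without medium change. A one-step fix, permeabilisation and Hoechst stain preceded 4× imaging and MetaXpress nuclear counting. Viability equals treated-well nuclei divided by vehicle-well nuclei, as the median over plates.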

Cell Line | relative viability ([1]; first compound 0.009487 µM) | relative viability ([1]; first compound 0.03 µM) | relative viability ([1]; first compound 0.09487 µM) | relative viability ([1]; first compound 0.3 µM) | relative viability ([2]; first compound 0.009487 µM) | relative viability ([2]; first compound 0.03 µM) | relative viability ([2]; first compound 0.09487 µM) | relative viability ([2]; first compound 0.3 µM) | relative viability ([3]; first compound 0.009487 µM) | relative viability ([3]; first compound 0.03 µM) | relative viability ([3]; first compound 0.09487 µM) | relative viability ([3]; first compound 0.3 µM) | relative viability ([4]; first compound 0.009487 µM) | relative viability ([4]; first compound 0.03 µM) | relative viability ([4]; first compound 0.09487 µM) | relative viability ([4]; first compound 0.3 µM) | relative viability ([5]; 0.009487 µM) | relative viability ([5]; 0.03 µM) | relative viability ([5]; 0.09487 µM) | relative viability ([5]; 0.3 µM)
NCI-H647 | 0.302 | 0.0795 | 0.059 | 0.0723 | 0.606 | 0.0725 | 0.0657 | 0.0722 | 0.687 | 0.221 | 0.0703 | 0.0856 | 0.674 | 0.0709 | 0.0658 | 0.0602 | 0.713 | 0.0972 | 0.0714 | 0.0765
NCI-H2009 | 0.463 | 0.159 | 0.11 | 0.105 | 1.13 | 0.0796 | 0.0746 | 0.0749 | 1.3 | 0.144 | 0.103 | 0.0969 | 1.12 | 0.283 | 0.105 | 0.104 | 0.937 | 0.179 | 0.109 | 0.1
EPLC-272H | 0.344 | 0.122 | 0.0306 | 0.0277 | 0.853 | 0.484 | 0.0554 | 0.0387 | 0.591 | 0.0464 | 0.0366 | 0.0314 | 1.29 | 0.665 | 0.33 | 0.0559 | 0.855 | 0.0817 | 0.0396 | 0.0347
NCI-H520 | 0.476 | 0.203 | 0.167 | 0.166 | 0.573 | 0.102 | 0.124 | 0.128 | 0.573 | 0.126 | 0.136 | 0.151 | 0.615 | 0.128 | 0.129 | 0.177 | 0.915 | 0.276 | 0.155 | 0.18
NCI-H2405 | 0.417 | 0.253 | 0.223 | 0.186 | 0.772 | 0.224 | 0.201 | 0.209 | 1.02 | 0.256 | 0.248 | 0.238 | 0.989 | 0.25 | 0.262 | 0.235 | 0.947 | 0.405 | 0.246 | 0.23
NCI-H2085 | 0.72 | 0.304 | 0.232 | 0.202 | 1.02 | 0.313 | 0.208 | 0.236 | 1.16 | 0.259 | 0.194 | 0.241 | 0.94 | 0.188 | 0.176 | 0.202 | 1.07 | 0.685 | 0.27 | 0.268
NCI-H322M | 0.41 | 0.315 | 0.244 | 0.267 | 1.05 | 0.66 | 0.191 | 0.182 | 0.801 | 0.287 | 0.302 | 0.281 | 0.925 | 0.477 | 0.224 | 0.229 | 0.721 | 0.333 | 0.289 | 0.258
NCI-H1944 | 0.184 | 0.117 | 0.121 | 0.13 | 1.14 | 0.143 | 0.136 | 0.126 | 0.892 | 0.191 | 0.152 | 0.134 | 1.36 | 0.613 | 0.192 | 0.225 | 0.971 | 0.166 | 0.141 | 0.149
LC-2-ad | 0.334 | 0.219 | 0.181 | 0.18 | 0.441 | 0.119 | 0.109 | 0.116 | 0.824 | 0.248 | 0.205 | 0.195 | 0.745 | 0.0866 | 0.0684 | 0.0797 | 0.917 | 0.18 | 0.145 | 0.129
NCI-H358 | 0.268 | 0.078 | 0.0729 | 0.0856 | 0.373 | 0.0972 | 0.135 | 0.144 | 0.493 | 0.0864 | 0.0847 | 0.0882 | 0.552 | 0.149 | 0.185 | 0.176 | 0.785 | 0.153 | 0.104 | 0.131
NCI-H2170 | 0.415 | 0.133 | 0.119 | 0.152 | 0.86 | 0.188 | 0.157 | 0.181 | 0.901 | 0.281 | 0.189 | 0.194 |  |  |  |  | 0.942 | 0.24 | 0.171 | 0.156
A-427 | 0.328 | 0.094 | 0.0857 | 0.0889 | 0.72 | 0.12 | 0.057 | 0.0481 | 0.955 | 0.117 | 0.0874 | 0.0871 | 1.09 | 0.512 | 0.0865 | 0.0756 | 0.828 | 0.144 | 0.084 | 0.0857
NCI-H1666 | 0.461 | 0.34 | 0.4 | 0.347 | 0.742 | 0.194 | 0.202 | 0.271 | 0.832 | 0.318 | 0.38 | 0.328 | 0.656 | 0.198 | 0.209 | 0.216 | 0.896 | 0.485 | 0.376 | 0.345
LOU-NH91 | 0.645 | 0.249 | 0.208 | 0.151 | 0.738 | 0.348 | 0.29 | 0.267 | 0.971 | 0.406 | 0.214 | 0.216 | 0.94 | 0.467 | 0.236 | 0.245 | 0.958 | 0.311 | 0.261 | 0.269
ABC-1 | 0.209 | 0.157 | 0.13 | 0.132 | 1.16 | 0.178 | 0.11 | 0.0832 | 0.876 | 0.166 | 0.126 | 0.106 | 0.665 | 0.278 | 0.166 | 0.126 | 0.757 | 0.237 | 0.165 | 0.116
